Publication PMC6627609, “Targeting Quorum Sensing: High-Throughput Screening to Identify Novel LsrK Inhibitors” (International Journal of Molecular Sciences, 2019)
Counter-ions that a name gives are not always drawn.

Target: LsrK (Salmonella typhimurium, UniProt Q8ZKQ6)
Test: biochemical
Format: biochemical, S. typhimurium
Details: for Inhibition (%): 50 µM

Chain of LsrK (Q8ZKQ6 whole entry): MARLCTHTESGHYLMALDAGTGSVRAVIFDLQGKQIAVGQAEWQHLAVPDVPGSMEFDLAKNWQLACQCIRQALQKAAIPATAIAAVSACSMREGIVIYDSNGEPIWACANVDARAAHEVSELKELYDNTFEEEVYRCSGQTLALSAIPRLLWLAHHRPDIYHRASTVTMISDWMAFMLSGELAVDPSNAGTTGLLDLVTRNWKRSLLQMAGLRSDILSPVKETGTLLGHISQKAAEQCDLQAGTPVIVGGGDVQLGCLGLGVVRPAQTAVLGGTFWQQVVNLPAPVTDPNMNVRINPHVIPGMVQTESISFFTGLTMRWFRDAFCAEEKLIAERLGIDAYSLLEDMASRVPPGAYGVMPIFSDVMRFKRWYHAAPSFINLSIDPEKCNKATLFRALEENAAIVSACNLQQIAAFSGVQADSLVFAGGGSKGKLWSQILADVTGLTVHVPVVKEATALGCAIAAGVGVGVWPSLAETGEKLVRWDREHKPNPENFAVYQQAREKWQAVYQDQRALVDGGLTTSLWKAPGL

SMILES: CC(=O)O[C@H]1C[C@@H](OC(C)=O)C(C)(C)[C@@H]2CC(=O)[C@]3(C)[C@H](CC[C@@]4(C)[C@H](c5ccoc5)OC(=O)[C@H]5O[C@]543)[C@@]12C [7-DEACETOXY-7-OXOKHIVORIN]
- IC50: 3 µM
- inhibition at 50 µM: 133%

SMILES: CC(=O)O[C@H]1C[C@@H](OC(C)=O)C(C)(C)C2C[C@@H](O)[C@]3(C)C(CC[C@@]4(C)[C@H](c5ccoc5)OC(=O)[C@H]5O[C@]543)[C@]21C (some centres unmarked) [7-DEACETYLKHIVORIN]
- Inhibition (%): 0

SMILES: CC1(C)C(=O)C=C[C@]2(C)[C@H]3CC[C@@]4(C)[C@H](c5ccoc5)OC(=O)[C@H]5O[C@]54[C@]3(C)C=C[C@@H]12 [7-DESACETOXY-6.7-DEHYDROGEDUNIN]
- Inhibition (%): 33

SMILES: O=C(O)c1cc(O)c(=O)c2c(O)c(O)ccc2c1 [7-DESHYDROXYPYROGALLIN-4-CARBOXYLIC ACID]
- IC50: 7 µM
- inhibition at 50 µM: 107%

SMILES: O=[N+]([O-])c1cccc2cn[nH]c12 [7-NITROINDAZOLE]
- inhibition at 50 µM: 1%

SMILES: O=c1cc(-c2ccccc2O)oc2cc(O)ccc12 [7.2'-DIHYDROXYFLAVONE]
- Inhibition (%): 76

SMILES: O=c1cc(-c2ccc(O)cc2)oc2cc(O)ccc12 [7.4'-DIHYDROXYFLAVONE]
- Inhibition (%): 1

SMILES: COc1ccc(-c2coc3cc(OC)ccc3c2=O)cc1 [7.4'-DIMETHOXYISOFLAVONE]
- Inhibition (%): 1

SMILES: O=c1cc(-c2ccccc2)oc2c(O)c(O)ccc12 [7.8-DIHYDROXYFLAVONE]
- Inhibition (%): 5

SMILES: COC(=O)C[C@H]1C(C)(C)C2(O)OC34CC2C(=O)[C@]1(C)C3CC[C@]1(C)C4=CC(=O)O[C@H]1c1ccoc1 (stereo partly drawn) [8beta-HYDROXYCARAPIN. 3.8-HEMIACETAL]
- Inhibition (%): 0

SMILES: CC[C@@]1(O)C(=O)OCc2c1cc1n(c2=O)Cc2cc3cc(O)ccc3nc2-1 [10-HYDROXYCAMPTOTHECIN]
- inhibition at 50 µM: 1%

SMILES: CC(=O)O[C@@H]1C[C@]2(C)[C@@H](C(C)=O)CC[C@H]2[C@@H]2CCC3=CC(=O)CC[C@]3(C)[C@H]21 [11a-ACETOXYPROGESTERONE]
- Inhibition (%): 23

SMILES: COc1ccc2c(c1)OC1(O)COc3cc(OC)c(OC)cc3C1=C2 (centres unmarked) [12a-HYDROXY-5-DEOXYDEHYDROMUNDUSERONE]
- inhibition at 50 µM: 0%

SMILES: COc1cc2c(cc1OC)C1(O)C(=O)c3ccc(O)c(C(=O)O)c3OC1CO2 (centres unmarked) [12a-HYDROXY-9-DEMETHYLMUNDUSERONE-8-CARBOXYLIC ACID]
- inhibition at 50 µM: 3%

SMILES: CC(C)c1ccc2c(c1)CCC1[C@](C)(CN)CCC[C@]21C.O=S(=O)(O)O (some centres unmarked) [18-AMINOABIETA-8.11.13-TRIENE SULFATE]
- Inhibition (%): 1

SMILES: COc1ccc(-c2cc(=O)c3c(OC(C)=O)cc(OC(C)=O)cc3o2)cc1 [ACACETIN DIACETATE]
- inhibition at 50 µM: 0%

SMILES: NC(=O)c1ncn([C@@H]2O[C@H](CO)[C@@H](O)[C@H]2O)c1N [ACADESINE]
- inhibition at 50 µM: 0%

SMILES: CCCC(=O)Nc1ccc(OCC(O)CNC(C)C)c(C(C)=O)c1 (centres unmarked) [ACEBUTOLOL HYDROCHLORIDE]
- inhibition at 50 µM: 0%

SMILES: CC(=O)Nc1ccccc1 [ACETANILIDE]
- inhibition at 50 µM: 1%

SMILES: COc1cc(C(C)=O)cc(OC)c1O [ACETOSYRINGONE]
- inhibition at 50 µM: 8%

SMILES: CC(=O)Oc1c2c(c(CC=C(C)C)c3c1C(=O)C1=C[C@@H]4CC5C(C)(C)OC(C/C=C(\C)C(=O)O)(C4=O)[C@@]15O3)OC(C)(CCC=C(C)C)C=C2 (some centres unmarked) [ACETYL I[…]]
- IC50: 4 µM
- inhibition at 50 µM: 141%

SMILES: CC(=O)N[C@@H](CC(C)C)C(=O)O [ACETYL-L-LEUCINE]
- inhibition at 50 µM: 0%

SMILES: CC(=O)N[C@@H](Cc1c[nH]c2ccccc12)C(N)=O [ACETYLTRYPTOPHANAMIDE]
- inhibition at 50 µM: 1%

SMILES: CC(=O)N[C@@H](Cc1c[nH]c2ccccc12)C(=O)O [ACETYLTRYPTOPHAN]
- inhibition at 50 µM: 6%

SMILES: O=C(O)/C=C(\CC(=O)O)C(=O)O [ACONITIC ACID]
- inhibition at 50 µM: 1%

SMILES: CCN1C[C@]2(COC)[C@H](O)C[C@H](OC)[C@@]34[C@@H]5C[C@@]6(O)[C@H](OC(=O)c7ccccc7)[C@@H]5[C@@](OC(C)=O)([C@@H]([C@H](OC)[C@H]23)[C@@H]14)[C@@H](O)[C@@H]6OC [ACONITINE]
- inhibition at 50 µM: 1%

SMILES: Nc1nc2c(ncn2COCCO)c(=O)[nH]1 [ACYCLOVIR]
- inhibition at 50 µM: 8%

SMILES: Nc1ncnc2[nH]cnc12 [ADENINE]
- inhibition at 50 µM: 1%

SMILES: CCN(CC)CCOC(=O)C(c1ccccc1)c1ccccc1 [ADIPHENINE HYDROCHLORIDE]
- inhibition at 50 µM: 0%

SMILES: CNC[C@H](O)c1ccc(O)c(O)c1.O=C(O)C(O)C(O)C(=O)O [ADRENALINE BITARTRATE]
- Inhibition (%): 15

SMILES: O=c1ccc2cc(O[C@@H]3O[C@H](CO)[C@@H](O)[C@H](O)[C@H]3O)c(O)cc2o1 [AESCULIN]
- Inhibition (%): 1

SMILES: NCCCCN=C(N)N [AGMATINE SULFATE]
- inhibition at 50 µM: 0%

SMILES: CC[C@H]1[C@@H]2C[C@H]3[C@@H]4N(C)c5ccccc5[C@]45C[C@@H]([C@H]2[C@H]5O)N3[C@@H]1O [AJMALINE]
- inhibition at 50 µM: 0%

SMILES: CC(N)C(=O)OC(C)(C)Cc1ccc(Cl)cc1 (centres unmarked) [ALAPROCLATE]
- inhibition at 50 µM: 1%

SMILES: CCCSc1ccc2nc(NC(=O)OC)[nH]c2c1 [ALBENDAZOLE]
- inhibition at 50 µM: 4%

SMILES: O=C(O)CCCCCCCC(O)C(O)CCCCCCO (centres unmarked) [ALEURETIC ACID]
- Inhibition (%): 0

SMILES: CCCCC(CC)CNC(=N)NC(=N)NCCCCCCNC(=N)NC(=N)NCC(CC)CCCC (centres unmarked) [ALEXIDINE HYDROCHLORIDE]
- inhibition at 50 µM: 146%

SMILES: COc1cc2nc(N(C)CCCNC(=O)C3CCCO3)nc(N)c2cc1OC (centres unmarked) [ALFLUZOSIN]
- Inhibition (%): 1
